Laboratory results: patent US10689367B2, “Triazole pyridyl compounds as agonists of the APJ receptor” (AMGEN INC., priority 2016, dated 2020)

These compounds were tested against human APJ receptor (Homo sapiens (Human), UniProt P35414) (assay: [35S]GTPγS binding assay on membranes from CHO cells stably expressing human APJ receptor). Conditions: membranes of CHO cells stably expressing human APJ receptor, read-out: Activity hAPJ SPA EC50 IP.
human APJ receptor, sequence (P35414 whole entry): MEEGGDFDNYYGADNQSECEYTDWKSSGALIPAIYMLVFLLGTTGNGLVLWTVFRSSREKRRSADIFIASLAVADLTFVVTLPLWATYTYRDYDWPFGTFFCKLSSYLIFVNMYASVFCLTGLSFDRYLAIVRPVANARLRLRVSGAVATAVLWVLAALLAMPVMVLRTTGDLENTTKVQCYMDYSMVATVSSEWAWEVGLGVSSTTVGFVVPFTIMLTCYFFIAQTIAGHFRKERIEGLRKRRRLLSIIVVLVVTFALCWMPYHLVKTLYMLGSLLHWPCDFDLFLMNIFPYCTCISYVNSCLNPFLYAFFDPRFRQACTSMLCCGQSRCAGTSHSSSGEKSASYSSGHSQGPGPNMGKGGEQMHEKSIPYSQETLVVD
Type: biochemical
In short: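 [35S]GTPγS binding measured on membranes from CHO cells stably expressing FLAG-tagged human APJ, with GDP, MgCl2 and NaCl levels optimized beforehand. Incubation 90 min at RT, imager read-out; EC50 from non-linear regression, averaged over several independent experiments.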
Compound CC[C@H](c1c(C)noc1C)n1c(NS(=O)(=O)[C@@H](C)[C@H](C)c2ncc(Cl)cn2)nnc1-c1cccc(OC)n1 (mixture of isomers) [Example 210.0, (2S,3R)-3-(5-chloro-2-pyrimidinyl)-N-(4-((1R)-1-(3,5-dimethyl-1,2-oxazol-4-yl)propyl)-5-(6-methoxy-2-pyridinyl)-4H-1,2,4-triazol-3-yl)-2-butanesulfonamide and (2S,3R)-3-(5-chloro-2-pyrimidinyl)-N-(4-((1S)-1-(3,5-dimethyl-1,2-oxazol-4-yl)propyl)-5-(6-methoxy-2-pyridinyl)-4H-1,2,4-triazol-3-yl)-2-butanesulfonamide] has an EC50 of 5.3 nM.
With COc1cccc(-c2nnc(NS(=O)(=O)[C@@H](C)[C@H](C)c3ncc(Cl)cn3)n2Cc2ccon2)n1 [Example 260.0, (2S,3R)-3-(5-chloropyrimidin-2-yl)-N-(4-(isoxazol-3-ylmethyl)-5-(6-methoxypyridin-2-yl)-4H-1,2,4-triazol-3-yl)butane-2-sulfonamide] the EC50 was 5.1 nM.
COc1cccc(-c2nnc(NS(=O)(=O)[C@@H](C)[C@H](OC)c3ncc(Cl)cn3)n2C(CO)CO)n1 [Example 5.0, (1R,2S)-1-(5-chloro-2-pyrimidinyl)-N-(4-(2-hydroxy-1-(hydroxymethyl)ethyl)-5-(6-methoxy-2-pyridinyl)-4H-1,2,4-triazol-3-yl)-1-methoxy-2-propanesulfonamide] gave an EC50 of 50 nM.
COc1cccc(-c2nnc(NS(=O)(=O)[C@@H](C)[C@@H](OC(C)C)c3ncc(C)cn3)n2[C@@H](C)c2ccno2)n1 (single isomer, unassigned) [Example 216.0, (1S,2S)-N-(5-(6-methoxy-2-pyridinyl)-4-((1S)-1-(1,2-oxazol-5-yl)ethyl)-4H-1,2,4-triazol-3-yl)-1-(5-methyl-2-pyrimidinyl)-1-(2-propanyloxy)-2-propanesulfonamide or (1S,2S)-N-(5-(6-methoxy-2-pyridinyl)-4-((1R)-1-(1,2-oxazol-5-yl)ethyl)-4H-1,2,4-triazol-3-yl)-1-(5-methyl-2-pyrimidinyl)-1-(2-propanyloxy)-2-propanesulfonamide] showed an EC50 of 2.2 nM.
COc1cccc(-c2nnc(NS(=O)(=O)[C@@H](C)[C@@H](OC(C)C)c3ncc(C)cn3)n2[C@@H](C)c2c(C)noc2C)n1 (racemic) [Example 316.0, (1S,2S)-N-(4-((R)-1-(3,5-dimethylisoxazol-4-yl)ethyl)-5-(6-methoxypyridin-2-yl)-4H-1,2,4-triazol-3-yl)-1-isopropoxy-1-(5-methylpyrimidin-2-yl)propane-2-sulfonamide or (1S,2S)-N-(4-((S)-1-(3,5-dimethylisoxazol-4-yl)ethyl)-5-(6-methoxypyridin-2-yl)-4H-1,2,4-triazol-3-yl)-1-isopropoxy-1-(5-methylpyrimidin-2-yl)propane-2-sulfonamide] showed an EC50 of 21 nM.
Compound COCCn1c(NS(=O)(=O)[C@@H](C)[C@@H](OC(C)C)c2ncc(Cl)cn2)nnc1-c1cncc(C)c1 [Example 12.0, (1S,2S)-1-(5-chloro-2-pyrimidinyl)-N-(4-(2-methoxyethyl)-5-(5-methyl-3-pyridinyl)-4H-1,2,4-triazol-3-yl)-1-(2-propanyloxy)-2-propanesulfonamiide] has an EC50 of 120 nM.
For COc1cccc(-c2nnc(NS(=O)(=O)[C@@H](C)[C@H](C)c3ncc(C)cn3)n2C2CC2)n1 [Example 114.0], the EC50 was 54 nM.
For CO[C@H](c1cnc(C)cn1)[C@H](C)S(=O)(=O)Nc1nnc(-c2ccccn2)n1C1(C2CC2)CC1 [Example 110.0], the EC50 was 110 nM.
COc1cccc(-c2nnc(NS(=O)(=O)[C@@H](C)[C@H](C)c3ncc(Cl)cn3)n2[C@H](C)c2csnn2)n1 (single isomer, unassigned) [Example 296.0, (2S,3R)-N-(4-((R)-1-(1,2,3-thiadiazol-4-yl)ethyl)-5-(6-methoxypyridin-2-yl)-4H-1,2,4-triazol-3-yl)-3-(5-chloropyrimidin-2-yl)butane-2-sulfonamide or (2S,3R)-N-(4-((S)-1-(1,2,3-thiadiazol-4-yl)ethyl)-5-(6-methoxypyridin-2-yl)-4H-1,2,4-triazol-3-yl)-3-(5-chloropyrimidin-2-yl)butane-2-sulfonamide] gave an EC50 of 1.8 nM.
COc1cccc(-c2nnc(NS(=O)(=O)[C@@H](C)[C@H](OC)c3ncc(Cl)cn3)n2[C@H](C)[C@@H]2CCCCO2)n1 (single isomer, unassigned) [Example 317.0] gave an EC50 of 0.71 nM.
CC[C@@H](C)n1c(NS(=O)(=O)[C@@H](C)[C@H](OC)c2ncc(Cl)cn2)nnc1-c1cccc(OC)n1 (single isomer, unassigned) [Example 54.0] was tested, and the EC50 was 0.5 nM.
COc1cccc(-c2nnc(NS(=O)(=O)[C@@H](C)[C@H](C)c3ncc(Cl)cn3)n2[C@@H](C)c2ncnn2C)n1 (single isomer, unassigned) [Example 251.0, (2S,3R)-3-(5-chloro-2-pyrimidinyl)-N-(5-(6-methoxy-2-pyridinyl)-4-((1R)-1-(1-methyl-1H-1,2,4-triazol-5-yl)ethyl)-4H-1,2,4-triazol-3-yl)-2-butanesulfonamide or (2S,3R)-3-(5-chloro-2-pyrimidinyl)-N-(5-(6-methoxy-2-pyridinyl)-4-((1S)-1-(1-methyl-1H-1,2,4-triazol-5-yl)ethyl)-4H-1,2,4-triazol-3-yl)-2-butanesulfonamide] showed an EC50 of 1.7 nM.
With COc1cccc(-c2nnc(NS(=O)(=O)[C@@H](C)[C@H](OC)c3ncc(Cl)cn3)n2[C@@H]2CC23CC3)n1 (single isomer, unassigned) [Example 90.0] the EC50 was 6.2 nM.
For COc1cccc(-c2nnc(NS(=O)(=O)[C@@H](C)[C@H](C)c3ncc(Cl)cn3)n2[C@@H](C)c2nc(C)no2)n1 (single isomer, unassigned) [Example 246.0, (2S,3R)-3-(5-chloro-2-pyrimidinyl)-N-(5-(6-methoxy-2-pyridinyl)-4-((1R)-1-(5-methyl-1,2,4-oxadiazol-3-yl)ethyl)-4H-1,2,4-triazol-3-yl)-2-butanesulfonamide or (2S,3R)-3-(5-chloro-2-pyrimidinyl)-N-(5-(6-methoxy-2-pyridinyl)-4-((1S)-1-(5-methyl-1,2,4-oxadiazol-3-yl)ethyl)-4H-1,2,4-triazol-3-yl)-2-butanesulfonamide], the EC50 was 3.4 nM.
In the case of CO[C@H](c1ncc(Cl)cn1)[C@H](C)S(=O)(=O)Nc1nnc(-c2ccccn2)n1C [Example 130.0], the EC50 is reported as 350 nM.
In the case of COc1cccc(-c2nnc(NS(=O)(=O)[C@@H](C)[C@H](OC)c3ncc(Cl)cn3)n2C(C2CC2)C2CC2)n1 [Example 25.0, (1R,2S)-1-(5-chloro-2-pyrimidinyl)-N-(4-(dicyclopropylmethyl)-5-(6-methoxy-2-pyridinyl)-4H-1,2,4-triazol-3-yl)-1-methoxy-2-propanesulfonamide], the EC50 is reported as 0.08 nM.
COc1cccc(-c2nnc(NS(=O)(=O)[C@@H](C)[C@H](OC)c3ncc(Cl)cn3)n2C2CCC2)n1 [Example 182.0, (1R,2S)-1-(5-chloro-2-pyrimidinyl)-N-(4-cyclobutyl-5-(6-methoxy-2-pyridinyl)-4H-1,2,4-triazol-3-yl)-1-methoxy-2-propanesulfonamide] gave an EC50 of 25 nM.
In the case of COc1cccc(-c2nnc(NS(=O)(=O)[C@@H](C)[C@H](OC)c3ncc(Cl)cn3)n2CCS(C)(=O)=O)n1 [Example 57.0, (1R,2S)-1-(5-Chloro-2-pyrimidinyl)-1-methoxy-N-(5-(6-methoxy-2-pyridinyl)-4-(2-(methylsulfonyl)ethyl)-4H-1,2,4-triazol-3-yl)-2-propanesulfonamide], the EC50 is reported as 211 nM.
COc1cccc(-c2nnc(NS(=O)(=O)[C@@H](C)[C@H](C)c3ncc(C)cn3)n2Cc2ccon2)n1 [Example 291.0, (2S,3R)-N-(4-(isoxazol-3-ylmethyl)-5-(6-methoxypyridin-2-yl)-4H-1,2,4-triazol-3-yl)-3-(5-methylpyrimidin-2-yl)butane-2-sulfonamide] was tested, and the EC50 was 35 nM.
Work on [2H]C1([2H])C(n2c(NS(=O)(=O)[C@@H](C)[C@@H](OC(C)C)c3ncc(C)cn3)nnc2-c2cccc(OC)n2)C1([2H])[2H] [Example 164.0, (1S,2S)—N-(4-(Cyclopropyl-2,2,3,3-d4)-5-(6-methoxypyridin-2-yl)-4H-1,2,4-triazol-3-yl)-1-isopropoxy-1-(5-methylpyrimidin-2-yl)propane-2-sulfonamide] yielded an EC50 of 11 nM.
With COc1cccc(-c2nnc(NS(=O)(=O)[C@@H](C)[C@H](OC)c3ncc(Cl)cn3)n2[C@H](C)c2cc(F)cc(F)c2)n1 (single isomer, unassigned) [Example 341.0, (1R,2S)-1-(5-chloropyrimidin-2-yl)-N-(4-((R)-1-(3,5-difluorophenyl)ethyl)-5-(6-methoxypyridin-2-yl)-4H-1,2,4-triazol-3-yl)-1-methoxypropane-2-sulfonamide or (1R,2S)-1-(5-chloropyrimidin-2-yl)-N-(4-((S)-1-(3,5-difluorophenyl)ethyl)-5-(6-methoxypyridin-2-yl)-4H-1,2,4-triazol-3-yl)-1-methoxypropane-2-sulfonamide] the EC50 was 0.13 nM.
With COc1cc(Cn2c(NS(=O)(=O)[C@@H](C)[C@H](OC)c3cnc(C)cn3)nnc2-c2cccc(OC)n2)on1 [Example 199.0, (1R,2S)-1-methoxy-N-(4-((3-methoxy-1,2-oxazol-5-yl)methyl)-5-(6-methoxy-2-pyridinyl)-4H-1,2,4-triazol-3-yl)-1-(5-methyl-2-pyrazinyl)-2-propanesulfonamide] the EC50 was 220 nM.
In the case of COCCn1c(NS(=O)(=O)[C@@H](C)[C@H](C)c2ncc(OC)cn2)nnc1-c1ccccn1 [Example 21.0, (2S,3R)-N-(4-(2-methoxyethyl)-5-(2-pyridinyl)-4H-1,2,4-triazol-3-yl)-3-(5-methoxy-2-pyrimidinyl)-2-butanesulfonamide], the EC50 is reported as 430 nM.
COCC(COC)n1c(NS(=O)(=O)[C@@H](C)[C@H](OC)c2ncc(Cl)cn2)nnc1-c1cccc(OC)n1 [Example 6.0, (1R,2S)-1-(5-chloro-2-pyrimidinyl)-1-methoxy-N-(4-(2-methoxy-1-(methoxymethyl)ethyl)-5-(6-methoxy-2-pyridinyl)-4H-1,2,4-triazol-3-yl)-2-propanesulfonamide] was tested, and the EC50 was 0.3 nM.
COc1cccc(-c2nnc(NS(=O)(=O)[C@@H](C)[C@H](OC)c3ncc(Cl)cn3)n2C2(CF)CC2)n1 [Example 106.0] was tested, and the EC50 was 0.38 nM.
